These results are taken from patent US10954405B2, “Water-based diacetylene ink, hydrochromic polydiacetylene paper prepared using the ink, and use thereof” (INDUSTRY-UNIVERSITY COOPERATION FOUNDATION HANYANG …, priority 2015, dated 2021).

A short description of the data set: Solubility of DA-1 in water dependent upon temperature (FIG. 6C). Format: physicochemical. To be noted: sample of DA-1 and water in a plastic bag on a paper printed with "A", temperature elevated; clearer at 25° C. and 30° C. How it is done: FIGS. 6A-6C are a set of photographs illustrating the temperature-dependent reaction of the moisture test paper manufactured according to the moisture test paper manufacture example and solubility of DA-1 in water dependent upon temperature.
Referring to FIG. 6C when a sample including DA-1 and water was put into a plastic bag, the plastic bag was put on a paper on which “A” was printed, and temperature was elevated, the lower “A” began to be observed from about 20° C. and became clearer as temperature was elevated to 25° C. and 30° C.

`CCCCCCCCCCCCC#CC#CCCCCCCCCC(=O)NCCCn1cc[n+](CC#N)c1` [DA-1]: the “temperature from which DA-1 dissolves in water (printed "A" under the sample began to be observed)” value is “about 20 °C”.
